The source of these data is patent publication US20050090529A1, “3,5 Disubstituted indazole compounds with nitrogen-bearing 5-membered heterocycles, pharmaceutical compositions, and methods for mediating or inhibiting cell proliferation” (PFIZER INC, priority 2003, published 2005).

The test system of this experiment is Cyclin-dependent kinase. Description: Cyclin-dependent kinase inhibition, % inhibition at 10 nM (library Examples 99-270). As to conditions: 10 nM compound. The format is biochemical. How it is done: Cyclin-dependent kinase activity was measured by quantifying the enzyme-catalyzed, time-dependent incorporation of radioactive phosphate from [^32P]ATP or [^33P]ATP into a protein substrate. Unless noted otherwise, assays were performed in 96-well plates in a total volume of 50 μL, in the presence of 10 mM HEPES (N-[2-hydroxyethyl]piperazine-N′-[2-ethanesulfonic acid]) (pH 7.4), 10 mM MgCl2, 25 μM adenosine triphosphate (ATP), 1 mg/mL ovalbumin, 5 μg/mL leupeptin, 1 mM dithiothreitol, 10 mM beta-glycerophosphate, 0.1 mM sodium vanadate, 1 mM sodium fluoride, 2.5 mM ethylene glycol-bis(β-aminoethyl ethKer)-N,N,N′N′-tetraacetic acid (EGTA), 2% (v/v) dimethylsulfoxide, and 0.03-0.4 μCi [^32/33P]ATP per reaction. Reactions were initiated with enzyme, incubated at 30° C., and terminated after 20 minutes by the addition of ethylenediaminetetraacetic acid (EDTA) to 250 mM. The phosphorylated substrate was then captured on a nitrocellulose or phosphocellulose membrane using a 96-well filtration manifold, and unincorporated radioactivity was removed by repeated washing with 0.85% phosphoric acid. Radioactivity was quantified by exposing the dried membranes to a phosphorimager.
Results of assays performed on compounds, which include the specific examples described above are provided in Examples 99-274 above, and in Table 1 below. Unless indicated otherwise in a particular entry, the units and assays used are as indicated in the applicable column of the table.
Regarding `CCNCc1cncc(-c2ccc3[nH]nc(-c4ncc(C(=O)N5CCN(C(C)=O)CC5)[nH]4)c3c2)c1C` [Example 116], the “% Inhib @ 10 nM” value came to 66%.
Regarding `CCNCc1cncc(-c2ccc3[nH]nc(-c4ncc(C(=O)NCCC5CCN(Cc6ccccc6)CC5)[nH]4)c3c2)c1C` [Example 192, N-[2-(1-benzylpiperidin-4-yl)ethyl]-2-(5-{5-[(ethylamino)methyl]-4-methylpyridin-3-yl}-1H-indazol-3-yl)-1H-imidazole-5-carboxamide], the “% Inhib @ 10 nM” value came to 30%.
For `CCNCc1cncc(-c2ccc3[nH]nc(-c4ncc(C(=O)N5C[C@@H]6C[C@H]5CO6)[nH]4)c3c2)c1C` [Example 186, ethyl{[4-methyl-5-(3-{5-[(1S,4S)-2-oxa-5-azabicyclo[2.2.1]hept-5-ylcarbonyl]-1H-imidazol-2-yl)-1H-indazol-5-yl)pyridin-3-yl]methyl}amine], the “% Inhib @ 10 nM” value amounted to 61%.
The value for `CCNCc1cncc(-c2ccc3[nH]nc(-c4ncc(C(=O)NCCSCc5ccc(CN(C)C)o5)[nH]4)c3c2)c1C` [Example 155, N-{2-[({5-[(dimethylamino)methyl]-2-furyl}methyl)thio]ethyl}-2-(5-{5-[(ethylamino)methyl]-4-methylpyridin-3-yl}-1H-indazol-3-yl)-1H-imidazoie-5-carboxamide] was 37%; that for `CCNCc1cncc(-c2ccc3[nH]nc(-c4ncc(C(=O)NCC(N)=O)[nH]4)c3c2)c1C` [Example 109, N-(2-amino-2-oxoethyl)-2-(5-{5-[(ethylamino)methyl]-4-methylpyridin-3-yl}-1H-indazol-3-yl)-1H-imidazole-5-carboxamide] was 69%; that for `CCNCc1cncc(-c2ccc3[nH]nc(-c4ncc(C(=O)N5CCC(Cc6cccc(CO)c6)CC5)[nH]4)c3c2)c1C` [Example 262, (3-[(1-{[2-(5-{5-[(ethylamino)methyl]-4-methylpyridin-3-yl}-1H-indazol-3-yl)-1H-imidazol-5-yl]carbonyl}piperidin-4-yl)methyl]phenyl}methanol] was 59%.
In the case of `CCNCc1cncc(-c2ccc3[nH]nc(-c4ncc(C(=O)N5CCN(CCOC)CC5)[nH]4)c3c2)c1C` [Example 169, ethyl({5-[3-(5-{[4-(2-methoxyethyl)piperazin-1-yl]carbonyl}-1H-imidazol-2-yl)-1H-indazol-5-yl]-4-methylpyridin-3-yl}methyl)amine], the “% Inhib @ 10 nM” value stood at 37%.
Consider `CCNCc1cncc(-c2ccc3[nH]nc(-c4ncc(C(=O)NCCCSC)[nH]4)c3c2)c1C` [Example 174, 2-(5-{5-[(ethylamino)methyl]-4-methylpyridin-3-yl}-1H-indazol-3-yl)-N-[3-(methylthio)propyl]1H-imidazole-5-carboxamide], for which the “% Inhib @ 10 nM” value is listed as 41%.
The value for `CCNCc1cncc(-c2ccc3[nH]nc(-c4ncc(C(=O)NCCCN5CCCC5=O)[nH]4)c3c2)c1C` [Example 130] was 28%; that for `CCNCc1cncc(-c2ccc3[nH]nc(-c4ncc(C(=O)NC5CCC5)[nH]4)c3c2)c1C` [Example 135, N-cyclobutyl-2-(5-{5-[(ethylamino)methyl]-4-methylpyridin-3-yl}-1H-indazol-3-yl)-1H-imidazole-5-carboxamide] was 67%; that for `CCNCc1cncc(-c2ccc3[nH]nc(-c4ncc(C(=O)N5CCCC5c5cccc6ccccc56)[nH]4)c3c2)c1C` (centres unmarked) [Example 195, ethyl({4-methyl-5-(3-(5-{[2-(1-naphthyl)pyrrolidin-1-yl]carbonyl}-1H-imidazol-2-yl)-1 H-indazol-5-yl]pyridin-3-yl]methyl)amine] was 32%.
Take `CCNCc1cncc(-c2ccc3[nH]nc(-c4ncc(C(=O)NCCCn5ccnc5)[nH]4)c3c2)c1C` [Example 99, 2-(5-{5-[(ethylamino)methy]-4-methylpyridin-3-yl}-1H-indazol-3-yl)-N-[3-(1H-imidazol-1-yL)propyl]-1H-imidazole-5-carboxamide]: the “% Inhib @ 10 nM” value turned out to be 39%.
For `CCNCc1cncc(-c2ccc3[nH]nc(-c4ncc(C(=O)NCC(O)COc5ccccc5)[nH]4)c3c2)c1C` (centres unmarked) [Example 249, 2-(5-{5-[(ethylamino)methyl]-4-methylpyridin-3-yl}-1H-indazol-3-yl)-N-(2-hydroxy-3-phenoxypropyl)-1H-imidazole-5-carboxamide], the “% Inhib @ 10 nM” value is given as 69%.
With `CCNCc1cncc(-c2ccc3[nH]nc(-c4ncc(C(=O)NC(CO)CCSC)[nH]4)c3c2)c1C` (centres unmarked) [Example 172], the “% Inhib @ 10 nM” value was 36%.
Regarding `CCNCc1cncc(-c2ccc3[nH]nc(-c4ncc(C(=O)N5CCC(c6cccnc6)C5)[nH]4)c3c2)c1C` (centres unmarked) [Example 242, ethyl{[4-methyl-5-(3-{5-[(3-pyridin-3-ylpyrrolidin-1-yl)carbonyl]-1H-imidazol-2-yl}-1H-indazol-5-yl)pyridin-3-yl]methyl}amine], the “% Inhib @ 10 nM” value is given as 66%.
Consider `CCNCc1cncc(-c2ccc3[nH]nc(-c4ncc(C(=O)N5CCC(CNC(=O)C(F)(F)F)CC5)[nH]4)c3c2)c1C` [Example 170, N-[(1-{[2-(5-{5-[(ethylamino)methyl]-4-methylpyridin-3yl}-1H-indazol-3-yl)-1H-imidazol-5-yl]carbonyl}piperidin-4-yl)methyl]-2,2,2-trifluoroacetamide], for which the “% Inhib @ 10 nM” value was 29%.
Consider `CCNCc1cncc(-c2ccc3[nH]nc(-c4ncc(C(=O)N[C@@H](CO)Cc5c[nH]c6ccccc56)[nH]4)c3c2)c1C` [Example 185, 2-(5-{5-[(ethylamino)methyl]-4-methylpyridin-3-yl}-1H-indazol-3-yl)-N-[(1R)-2-hydroxy-1-(1H-indol-3-ylmethyl)ethyl]-1H-imidazole-5-carboxamide], for which the “% Inhib @ 10 nM” value came to 52%.
`CCNCc1cncc(-c2ccc3[nH]nc(-c4ncc(C(=O)NCCO)[nH]4)c3c2)c1C` [Example 153, 2-(5-{5-[(ethylamino)methyl]-4-methylpyridin-3-yl}-1H-indazol-3-yl)-N-(2-hydroxyethyl)-1H-imidazole-5-carboxamide]: the “% Inhib @ 10 nM” value is recorded as 70%.
On to `CCNCc1cncc(-c2ccc3[nH]nc(-c4ncc(C(=O)NCCc5c[nH]cn5)[nH]4)c3c2)c1C` [Example 161, 2-(5-{5-[(ethylamino)methyl]-4-methylpyridin-3yl-1H-indazol-3yl)-N-2-(1H-imidazol-4-yl)ethyl]-1H-imidazole-5-carboxamide], for which the “% Inhib @ 10 nM” value was 48%.
In the case of `CCNCc1cncc(-c2ccc3[nH]nc(-c4ncc(C(=O)N5CCC(c6cccc(O)c6)CC5)[nH]4)c3c2)c1C` [Example 191, 3-(1-{[2-(5-{5-[(ethylamino)methyl]-4-methylpyridin-3-yl}-1H-indazol-3-yl)-1H-imidazol-5-yl]carbonyl}piperidin-4-yl)phenol] it was 74%.
As for `CCNCc1cncc(-c2ccc3[nH]nc(-c4ncc(C(=O)N(CC)CC)[nH]4)c3c2)c1C` [Example 132, N,N-diethyl-2-(5-{5-[(ethylamino)methyl]-4-methylpyridin-3-yl}-1H-indazol-3-yl)-1H-imidazxole-5-carboxamide], the “% Inhib @ 10 nM” value came to 80%.
Consider `CCNCc1cncc(-c2ccc3[nH]nc(-c4ncc(C(=O)NCCc5ccccn5)[nH]4)c3c2)c1C` [Example 102], for which the “% Inhib @ 10 nM” value is listed as 81%.
In the case of `CCNCc1cncc(-c2ccc3[nH]nc(-c4ncc(C(=O)N5CCC(Cc6ccccc6)C5)[nH]4)c3c2)c1C` (centres unmarked) [Example 239] it was 75%.
